Measurements from paper PMC9490060, “Synthesis and evaluation of anticancer activity of quillaic acid derivatives: A cell cycle arrest and apoptosis inducer through NF-κB and MAPK pathways” (Frontiers in Chemistry, 2022).

What was measured:
[1] = test system: BEL7402 (human hepatocellular carcinoma cell line); assay: MTT anti-proliferative assay, BEL7402; type: cell-based; details: Homo sapiens, Bel-7402, 48 h incubation, means ± SD, n = 3
Text: (§1) The anti-proliferative activities against five human cancer cell lines, including HCT116 (human colorectal cancer cell line), MCF-7 (human breast cancer cell line), SW620 (human colorectal cancer cell line), BEL7402 (human hepatocellular carcinoma cell line), and HepG2 (human hepatocellular carcinoma cell line) were established for all the target compounds using the MTT assay.
(§2) The propidium iodide (PI) and Annexin V-FITC apoptosis detection kit were purchased from Invitrogen (Eugene, OR, United States). 3-(4,5-Dimethylthiazol-2-yl)-2,5-diphenyl-2H-tetrazolium bromide (MTT) was purchased from Sigma-Aldrich Co. (St. Louis, MO, United States). All human cell lines were used in this study, colorectal cancer cell HCT116, colorectal cancer cell SW620, breast cancer cell MCF-7, liver hepatocellular carcinoma cell BEL7402, liver hepatocellular carcinoma HepG2 and normal liver cell L02 were initially purchased from American Type Culture Collection (ATCC, Manassas, VA, United States). RPMI-1640 media, Dulbecco’s modified Eagle’s medium (DMEM), and foetal bovine serum (FBS) were provided from Gibco Company (Grand Island, NY, United States). Cell line MCF-7 and HepG2 were cultivated in DMEM containing 10% (v/v) heat-inactivated FBS, 100 units/ml penicillin and […] streptomycin (Grand Island, NY, United States). Cell lines HCT116, BEL7402, SW620, and L02 were cultivated in RPMI 1640 medium containing 10% (v/v) heat-inactivated FBS, 100 units/ml penicillin, and […] streptomycin. The cells were incubated at 37°C under a 5% CO2 and 90% relative humidity (RH) atmosphere.
(§3) Stock solutions were prepared by diluting target compounds in DMSO at concentrations (1.25, 2.5, 5, and 10 mM). The stock solution was then diluted (1.25, 2.5, 5, and 10 μM) with culture medium, and the concentration of DMSO was controlled not to exceed 0.1%.
(§4) Place the cells in a 96-well plate at an appropriate density to ensure exponential growth (1 × 10^4–1.2×10^4 cells per well) throughout the experiment, and then allow the cells to adhere for 24 h. The cells were then treated with continuous concentrations of each compound (1.25, 2.5, 5, and 10 μM) for 48 h. After 48 h of incubation, 15 μl of MTT solution was added to each well, and the final concentration was 2 mg/ml. Then incubate for another 4 h. After incubation, remove the MTT solution and add […] of DMSO to each well for staining. Shake vigorously for 10 min at room temperature to ensure complete dissolution. The optical density (OD) was read on a microplate reader (ELx 800, BioTek, Highland Park, Winooski, VT, United States) with a wavelength of 492 nm, and then the data was analyzed.

[2] = test system: HepG2 (human hepatocellular carcinoma cell line); assay: MTT anti-proliferative assay, HepG2; type: cell-based; details: Homo sapiens, HepG2, 48 h incubation, means ± SD, n = 3
Text: as §1, §2, §3, §4

[3] = test system: MCF-7 (human breast cancer cell line); assay: MTT anti-proliferative assay, MCF-7; type: cell-based; details: Homo sapiens, MCF7, 48 h incubation, means ± SD, n = 3
Text: as §1, §2, §3, §4

[4] = test system: SW620 (human colorectal cancer cell line); assay: MTT anti-proliferative assay, SW620; type: cell-based; details: Homo sapiens, SW-620, 48 h incubation, means ± SD, n = 3
Text: as §1, §2, §3, §4

[5] = test system: HCT116 (human colorectal cancer cell line); assay: MTT anti-proliferative assay, HCT116; type: cell-based; details: Homo sapiens, HCT-116, 48 h incubation, means ± SD, n = 3
Text: as §1, §2, §3, §4

| SMILES | IC50 [1] [µM] | IC50 [2] [µM] | IC50 [3] [µM] | IC50 [4] [µM] | melting point [°C] | IC50 [5] [µM] |
| --- | --- | --- | --- | --- | --- | --- |
| CC1(C)CC[C@]2(C(=O)OCc3nnc(-c4ccc([N+](=O)[O-])cc4)o3)[C@H](O)C[C@]3(C)C(=CC[C@@H]4[C@@]5(C)CC[C@H](O)[C@@](C)(C=O)[C@@H]5CC[C@]43C)[C@@H]2C1 [Compound B6, (5-(4-nitrophenyl)-1,3,4-oxadiazol-2-yl)methyl (4aR,5R,6aS,6bR,8aR,9S,10S,12aR,12bR,14bS)-9-formyl-5,10-dihydroxy-2,2,6a,6b,9,12a-hexamethyl-1,3,4,5,6,6a,6b,7,8,8a,9,10,11,12,12a,12b,13,14b-octadecahydropicene-4a (2H)-carboxylate] | > 10 | > 10 | > 10 | > 10 | 140 to 142 | 3.65 ± 1.22 |
| CC1(C)CC[C@]2(C(=O)OCc3cn(-c4ccc(Cl)cc4)nn3)[C@H](O)C[C@]3(C)C(=CC[C@@H]4[C@@]5(C)CC[C@H](O)[C@@](C)(C=O)[C@@H]5CC[C@]43C)[C@@H]2C1 [Compound A3, (1-(4-chlorophenyl)-1H-1,2,3-triazol-4-yl)methyl (4aR,5R,6aS,6bR,8aR,9S,10S,12aR,12bR,14bS)-9-formyl-5,10-dihydroxy-2,2,6a,6b,9,12a-hexamethyl-1,3,4,5,6,6a,6b,7,8,8a,9,10,11,12,12a,12b,13,14b-octadecahydropicene-4a (2H)-carboxylate] | > 10 | > 10 | > 10 | > 10 | 193 to 194 | > 10 |
| COc1ccc(-n2cc(COC(=O)[C@]34CCC(C)(C)C[C@H]3C3=CC[C@@H]5[C@@]6(C)CC[C@H](O)[C@@](C)(C=O)[C@@H]6CC[C@@]5(C)[C@]3(C)C[C@H]4O)nn2)cc1 [Compound A6, (1-(4-methoxyphenyl)-1H-1,2,3-triazol-4-yl)methyl (4aR,5R,6aS,6bR,8aR,9S,10S,12aR,12bR,14bS)-9-formyl-5,10-dihydroxy-2,2,6a,6b,9,12a-hexamethyl-1,3,4,5,6,6a,6b,7,8,8a,9,10,11,12,12a,12b,13,14b-octadecahydropicene-4a (2H)-carboxylate] | > 10 | > 10 | > 10 | > 10 | 192 to 193 | > 10 |
| CC1(C)CC[C@]2(C(=O)OCCn3ncn(-c4ccc(Cl)cc4)c3=O)[C@H](O)C[C@]3(C)C(=CC[C@@H]4[C@@]5(C)CC[C@H](O)[C@@](C)(C=O)[C@@H]5CC[C@]43C)[C@@H]2C1 [Compound C3, 2-(4-(4-chlorophenyl)-5-oxo-4,5-dihydro-1H-1,2,4-triazol-1-yl)ethyl (4aR,5R,6aS,6bR,8aR,9S,10S,12aR,12bR,14bS)-9-formyl-5,10-dihydroxy-2,2,6a,6b,9,12a-hexamethyl-1,3,4,5,6,6a,6b,7,8,8a,9,10,11,12,12a,12b,13,14b-octadecahydropicene-4a (2H)-carboxylate] | > 10 | > 10 | > 10 | 7.11 ± 1.54 | 166 to 168 | 3.11 ± 1.02 |
| CC1(C)CC[C@]2(C(=O)OCc3cn(-c4ccc([N+](=O)[O-])cc4)nn3)[C@H](O)C[C@]3(C)C(=CC[C@@H]4[C@@]5(C)CC[C@H](O)[C@@](C)(C=O)[C@@H]5CC[C@]43C)[C@@H]2C1 [Compound A10, (1-(4-nitrophenyl)-1H-1,2,3-triazol-4-yl)methyl (4aR,5R,6aS,6bR,8aR,9S,10S,12aR,12bR,14bS)-9-formyl-5,10-dihydroxy-2,2,6a,6b,9,12a-hexamethyl-1,3,4,5,6,6a,6b,7,8,8a,9,10,11,12,12a,12b,13,14b-octadecahydropicene-4a (2H)-carboxylate] | > 10 | > 10 | > 10 | > 10 | 193 to 194 | > 10 |
